Assay results from patent US4118585A, “Anionic benzene tetrakis carbonylimino isophthalic acid salts” (priority 1977, dated 1978).

Columns and labels:
activated human C1 = assay: Test, Code 026 (C1 inhibitor); format: biochemical; conditions: serial two-fold dilution assay; higher well number indicates higher activity
Description: (§1) An active inhibitor protects C2 from C1 and C4; (ii) Test, Code 035 (C3-C9 inhibitor) -- This test determines the ability of the late components of human complement (C3-C9) to lyse EAC 142 in the presence of appropriate dilutions of the test compound. An active inhibitor protects EAC 142 from lysis by human C3-C9; (iii) Test, Code 036 (C-Shunt inhibitor) -- In this test human erythrocytes rendered fragile are lysed in autologous serum via the shunt pathway activated by cobra venom factor in the presence of appropriate dilutions of the test compound. Inhibition of the shunt pathway results in failure of lysis; (iv) Forssman Vasculitis Test -- Here, the well known complement dependent lesion, Forssman vasculitis, is produced in guinea pigs by intradermal injection of rabbit anti-Forssman antiserum. […]

[1] = system: late components of human complement (C3-C9); assay: Test, Code 035 (C3-C9 inhibitor); format: biochemical; parameters: key: N=Negative; conditions: serial two-fold dilution assay; lysis of EAC 142 by human C3-C9
Description: as §1

[2] = system: shunt pathway activated by cobra venom factor; assay: Test, Code 036 (C-Shunt inhibitor); format: cell-based; conditions: serial two-fold dilution assay; fragile human erythrocytes in autologous serum
Description: as §1

O=C([O-])c1cc(NC(=O)c2cc(C(=O)Nc3cc(C(=O)[O-])cc(C(=O)[O-])c3)c(C(=O)Nc3cc(C(=O)[O-])cc(C(=O)[O-])c3)cc2C(=O)Nc2cc(C(=O)[O-])cc(C(=O)[O-])c2)cc(C(=O)[O-])c1.[Na+].[Na+].[Na+].[Na+].[Na+].[Na+].[Na+].[Na+] [5,5',5",5'"-[1,2,4,5-Benzenetetrayltetrakis(carbonylimino)]-tetraisophthalic acid octasodium salt]
Cl 026 Wells (activated human C1): +7 Wells
C-Late 035 Wells [1]: N
Shunt Inhibition 036 Wells [2]: +3 Wells
